10 compounds from patent publication US10253037B2, “Drug with antiviral activity (variants)” (priority 2015, dated 2019) can be followed below.

In series [1] the test system is MT-4 human lymphoblastoid cells. Description: Cytotoxic effect of the drug on uninfected MT-4 cells (viability by dye). The class given is cell-based. The conditions noted are these: 5 days. On the procedure: Cells. MT-4 human lymphoblastoid cells were used. […] The drug. Samples of drugs dissolved in dimethylsulfoxide were studied. Study of the cytotoxic effect of the drug. The investigated medicinal product was added to the cells in various concentrations. […] Recording of the results: determination of the viability and the number of the cells by means of a dye.

The test system of series [2] is HIV-1899A strain. Kind of series: Antiviral effect in MT-4 cells infected with HIV-1 (MTT, cytopathic effect, syncytium). The class given is cell-based. The conditions noted are these: 0.01 TCD50/cell, 5 days. The method, then: Cells. MT-4 human lymphoblastoid cells were used. The cells were incubated in RPMI 1640 medium with 10% serum of cow embryos, 100 μg/ml of gentamicin.
Viruses. HIV-1899A strain was used as the source of the virus.
The drug. Samples of drugs dissolved in dimethylsulfoxide were studied.
Study of the antiviral effect of the drug.
The investigated medicinal products were added to the cells at various doses with simultaneous infection with the virus at a dose of 0.01 TCD50/cell. The cell cultures were incubated at 37° C. in the atmosphere with 5% of CO2 and at 98% humidity for 5 days. The results were recorded by staining the cells with tetrazolium dye (MTT method) with spectrophotometry and light microscopy: investigation of cytopathic effect of the virus (CPD) and virus-induced formation of syncytium (syncytium is a conglomerate of several cells with a common cell membrane formed as a result of fusion of their membranes).
The degree of protection of cells from the cyto-destructive effect of the virus was determined by the following formula:
[formula] where • A is the number of viable cells in the experimental group; • B is the same in the infected culture (virus control); • K is the same in the uninfected culture (cell control).
Background: Protection from cytopathic effect is a common read-out in antiviral testing.

The subject of the next series is Hepatitis B virus (HBV). Description: Amount of extracellular HBV DNA in HepG2.2.15 culture medium (RT-PCR). The class given is cell-based. The conditions noted are these: 5 μg/ml, HepG2.2.15 cells, 5 days; untreated control 4.42 +/− 0.28. On the procedure:
HepG2.2.15 line cells infected with Hepatitis B virus were grown in DMEM medium supplemented with 10% bovine serum at 5% CO2, 37° C.
Analysis of the amount of extracellular HBV of the DNA.
After 5 days of HepG2.2.15 incubation the culture medium was selected, the cells were separated by centrifugation, and the DNA was isolated by the Klintschar and Neuhuber method (Klintschar and Neuhuber, 2000). Quantitation of HBV was performed using RT-PCR.

The subject of series [3] is HIV-1899A strain. Kind of series: Joint action with anti-HIV drugs: cell protection in HIV-1 infected MT-4 cells (MTT). The class given is cell-based. On the procedure:
MT-4 human lymphoblastoid cells were used. The cells were cultured in RPMI 1640 medium with 10% serum of cow embryos, 100 μg/ml gentamicin.
The strain of HIV-1899A was used as a source of the virus.
The drug. Samples of drugs dissolved in dimethylsulfoxide were studied. As an antiretroviral reference drug, Raltegravir (prototype) was used.
Study of the antiviral action of the drug (cell protection).
The investigated drugs were added to the cells at various doses with simultaneous infection with the virus at a dose of 0.01 TCD50/cell. Cell cultures were incubated at 37° C. in the atmosphere with 5% CO2 and 98% humidity for 5 days. The results were recorded by staining the cells with tetrazolium dye (MTT method) with spectrophotometry and light microscopy: investigation of cytopathic effect of the virus (CPD) and virus-induced formation of syncytium (syncytium is a conglomerate of several cells with a common cell membrane formed as a result of fusion of their membranes).

As for `O=[N+]([O-])c1ccc(C2c3c(O)nc(Cl)nc3Oc3nc(Cl)nc(O)c32)cc1` [Derivative 1], the “Without virus (cytotoxicity) Viability of cells, %” value (shortened to “Without virus … %”) in series [1] (10 μg/ml), in series [1] (30 μg/ml) and in series [1] (50 μg/ml) was 100.0% each time. For the same compound, the “HIV 1 infection Cytopathic effect of the virus, %” value in the series with HIV-1899A strain [2] (10 μg/ml), in the series on HIV-1899A strain [2] (30 μg/ml) and with HIV-1899A strain [2] (50 μg/ml) was 0.0-0.0% each time. The “HIV 1 infection Protection of cells, %” value with HIV-1899A strain [2] (10 μg/ml) is on record as 100%; in the series on HIV-1899A strain [2] (30 μg/ml) it was 90%; in the series with HIV-1899A strain [2] (50 μg/ml) it was 100%. Further, in the series with Hepatitis B virus (HBV), the “HBV Log10 IU/ml (amount of extracellular DNA HBV)” value (“HBV Log10 IU/ml” for short) is recorded as 2.58 +/− 0.33 Log10 IU/ml.

Turning to `O=[N+]([O-])c1ccc(C2c3c(O)nc(S)nc3Oc3nc(Cl)nc(O)c32)cc1` (stereo not shown) [Derivative 2, 2-chloro-8-sulfhydryl-5-(4-nitrophenyl)-5H-pyrimido [5′,4′:5,6]pyrano[2,3-d]pyrimidine-4.6-diol], the “Without virus … %” value in series [1] (10 μg/ml), in series [1] (30 μg/ml) and in series [1] (50 μg/ml) was 100.0% throughout. Also, the “HIV 1 infection Cytopathic effect of the virus, %” value is reported as 0.0-0.0% with HIV-1899A strain [2] (10 μg/ml), 96-100% in the series on HIV-1899A strain [2] (30 μg/ml) and 55-80% in the series on HIV-1899A strain [2] (50 μg/ml). Further, the “HIV 1 infection Protection of cells, %” value amounted to 100% in the series with HIV-1899A strain [2] (10 μg/ml), 0% in the series on HIV-1899A strain [2] (30 μg/ml) and 10% in the series with HIV-1899A strain [2] (50 μg/ml). In the series on Hepatitis B virus (HBV), the “HBV Log10 IU/ml” value is on record as 2.65 +/− 0.19 Log10 IU/ml.

As a reminder, the melting point is the temperature of the solid-liquid transition. Take `O=[N+]([O-])c1ccc(C2c3c(O)nc(Cl)nc3Oc3nc(Cl)nc(Cl)c32)cc1` (stereo not shown) [Derivative 3, 2,6,8-trichloro-5-(4-nitrophenyl)-5H-pyrimido [5′, 4′:5,6] pyrano [2,3-d] pyrimidin-4-ol]: the melting point lay within 265 to 267 °C. Also, the “Without virus … %” value in series [1] (10 μg/ml) is on record as 100.0%. Further, the “Without virus … %” value in series [1] (30 μg/ml) came to 100.0%. The “Without virus … %” value in series [1] (50 μg/ml) was found to be 100.0%. Also, in the series on HIV-1899A strain [2] (10 μg/ml), the “HIV 1 infection Cytopathic effect of the virus, %” value is reported as 15-70% and the “HIV 1 infection Protection of cells, %” value is recorded as 50%. For the same compound, in the series on HIV-1899A strain [2] (30 μg/ml), the “HIV 1 infection Cytopathic effect of the virus, %” value is given as 18-92% and the “HIV 1 infection Protection of cells, %” value was found to be 30%. For the same compound, in the series with HIV-1899A strain [2] (50 μg/ml), the “HIV 1 infection Cytopathic effect of the virus, %” value is reported as 10-40% and the “HIV 1 infection Protection of cells, %” value is given as 65%.

With `O=[N+]([O-])c1ccc(C2C3=C(O)NC(O)(S)N=C3Oc3nc(Cl)nc(O)c32)cc1` (stereo not shown) [Derivative 4, 2-chloro-8-sulfhydryl-5-(4-nitrophenyl)-5H-pyrimido [5′,4′:5,6]pyrano[2,3-d]pyrimidine-4,6,8-triol], the melting point was 270 °C (dec.). Further, the “Without virus … %” value in series [1] (10 μg/ml) was found to be 100.0%. For the same compound, the “Without virus … %” value in series [1] (30 μg/ml) is given as 100.0%. Besides, the “Without virus … %” value in series [1] (50 μg/ml) stood at 100.0%. Also, in the series with HIV-1899A strain [2] (10 μg/ml), the “HIV 1 infection Cytopathic effect of the virus, %” value is reported as 0.0-0.0% and the “HIV 1 infection Protection of cells, %” value worked out at 95%. In addition, in the series on HIV-1899A strain [2] (30 μg/ml), the “HIV 1 infection Cytopathic effect of the virus, %” value is on record as 15-60% and the “HIV 1 infection Protection of cells, %” value turned out to be 50%. Also, in the series with HIV-1899A strain [2] (50 μg/ml), the “HIV 1 infection Cytopathic effect of the virus, %” value is on record as 0.0-0.0% and the “HIV 1 infection Protection of cells, %” value came out at 90%.

For `Oc1nc(Cl)nc2c1C(c1ccccc1)c1c(O)nc(Cl)nc1O2` [Derivative 5], the “Without virus … %” value in series [1] (10 μg/ml), in series [1] (30 μg/ml) and in series [1] (50 μg/ml) was 100.0% in each case. Besides, the entries for the “HIV 1 infection Cytopathic effect of the virus, %” value with HIV-1899A strain [2] (10 μg/ml), in the series on HIV-1899A strain [2] (30 μg/ml) and with HIV-1899A strain [2] (50 μg/ml) were 0.0-0.0%, 57.5-80.0% and 37.5-62.5%, respectively. The “HIV 1 infection Protection of cells, %” value in the series with HIV-1899A strain [2] (10 μg/ml) is listed as 100%; with HIV-1899A strain [2] (30 μg/ml), 10.7%; in the series with HIV-1899A strain [2] (50 μg/ml), 71.7%.

`Oc1nc(Cl)nc2c1C(c1cccc(Cl)c1)c1c(O)nc(Cl)nc1O2` [Derivative 6]: the “Without virus … %” value in series [1] (10 μg/ml), in series [1] (30 μg/ml) and in series [1] (50 μg/ml) was 100.0% throughout. Besides, the “HIV 1 infection Cytopathic effect of the virus, %” value in the series with HIV-1899A strain [2] (10 μg/ml) is recorded as 57.5-80.0%; in the series on HIV-1899A strain [2] (30 μg/ml), 37.5-62.5%; in the series on HIV-1899A strain [2] (50 μg/ml) it was 0.0-0.0%. Also, the “HIV 1 infection Protection of cells, %” value in the series on HIV-1899A strain [2] (10 μg/ml) was 10.7%; with HIV-1899A strain [2] (30 μg/ml), 71.7%; with HIV-1899A strain [2] (50 μg/ml) it was 90.5%.

In the case of `COc1ccc(C2c3c(O)nc(Cl)nc3Oc3nc(Cl)nc(O)c32)cc1` [Derivative 7], the “Without virus … %” value in series [1] (10 μg/ml), in series [1] (30 μg/ml) and in series [1] (50 μg/ml) was 100.0% each time. In addition, the results for the “HIV 1 infection Cytopathic effect of the virus, %” value in the series with HIV-1899A strain [2] (10 μg/ml), with HIV-1899A strain [2] (30 μg/ml) and in the series on HIV-1899A strain [2] (50 μg/ml) were 12-65%, 5-15% and 0.0-0.0%, respectively. Also, the “HIV 1 infection Protection of cells, %” value with HIV-1899A strain [2] (10 μg/ml) is 45%; in the series with HIV-1899A strain [2] (30 μg/ml), 80%; in the series with HIV-1899A strain [2] (50 μg/ml), 100%. In addition, the “HBV Log10 IU/ml” value in the series on Hepatitis B virus (HBV) is listed as 2.74 +/− 0.25 Log10 IU/ml.

With `Cc1cccc(C)c1OCC(=O)N[C@@H](Cc1ccccc1)[C@@H](O)C[C@H](Cc1ccccc1)NC(=O)[C@H](C(C)C)N1CCCNC1=O` [Lopinavir], in the series on HIV-1899A strain [3] (Lopinavir alone, 2.5 μg/ml), the “Protection of cells, %” value came out at 17%.

Turning to `Cc1nnc(C(=O)NC(C)(C)c2nc(C(=O)NCc3ccc(F)cc3)c(O)c(=O)n2C)o1` [Raltegravir, reference compound], the results for the “HIV 1 infection Cytopathic effect of the virus, %” value with HIV-1899A strain [2] (10 μg/ml), with HIV-1899A strain [2] (30 μg/ml) and in the series with HIV-1899A strain [2] (50 μg/ml) were 0.0-0.0%, 0.0-0.0% and 0.0%, respectively. The “HIV 1 infection Protection of cells, %” value with HIV-1899A strain [2] (10 μg/ml) is given as 90%; with HIV-1899A strain [2] (30 μg/ml) it was 100%. In the series with HIV-1899A strain [3] (Raltegravir alone, 10 μg/ml), the “Protection of cells, %” value worked out at 23%.

Take `Cc1cn([C@H]2C[C@H](N=[N+]=[N-])[C@@H](CO)O2)c(=O)[nH]c1=O` [Retrovir]: the “Protection of cells, %” value in the series with HIV-1899A strain [3] (Retrovir alone, 0.003 μg/ml) was found to be 13%.
